# Measurements reported in US11826351B2, “Compounds useful as kinase inhibitors” (Loxo Oncology, Inc., priority 2015, dated 2023).
# Columns and labels:
# [1] = target: T1, Recombinant BTK^WT kinase (Homo sapiens, UniProt Q06187); experiment: BTK WT binding affinity (LanthaScreen TR-FRET); conditions: Kinase Tracer 236, 5 h incubation
# T1 construct: purchased Invitrogen
# In short: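 IC50 obtained by variable-slope fit of TR-FRET signal (ex 340 nm; em 615 and 665 nm) versus inhibitor concentration. Reaction held for 5 h in LanthaScreen Kinase Buffer A with 2.5 nM His-tagged BTK^WT, 15 nM Kinase Tracer 236 and 2 nM Eu anti-His antibody.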
# [2] = target: T2, Recombinant BTK^C481S kinase (Homo sapiens, UniProt Q06187, C481S); experiment: BTK C481S binding affinity (LanthaScreen TR-FRET); conditions: Kinase Tracer 236, 5 h incubation
# T2 construct: purchased SignalChem
# T2 sequence (Q06187 whole entry C481S): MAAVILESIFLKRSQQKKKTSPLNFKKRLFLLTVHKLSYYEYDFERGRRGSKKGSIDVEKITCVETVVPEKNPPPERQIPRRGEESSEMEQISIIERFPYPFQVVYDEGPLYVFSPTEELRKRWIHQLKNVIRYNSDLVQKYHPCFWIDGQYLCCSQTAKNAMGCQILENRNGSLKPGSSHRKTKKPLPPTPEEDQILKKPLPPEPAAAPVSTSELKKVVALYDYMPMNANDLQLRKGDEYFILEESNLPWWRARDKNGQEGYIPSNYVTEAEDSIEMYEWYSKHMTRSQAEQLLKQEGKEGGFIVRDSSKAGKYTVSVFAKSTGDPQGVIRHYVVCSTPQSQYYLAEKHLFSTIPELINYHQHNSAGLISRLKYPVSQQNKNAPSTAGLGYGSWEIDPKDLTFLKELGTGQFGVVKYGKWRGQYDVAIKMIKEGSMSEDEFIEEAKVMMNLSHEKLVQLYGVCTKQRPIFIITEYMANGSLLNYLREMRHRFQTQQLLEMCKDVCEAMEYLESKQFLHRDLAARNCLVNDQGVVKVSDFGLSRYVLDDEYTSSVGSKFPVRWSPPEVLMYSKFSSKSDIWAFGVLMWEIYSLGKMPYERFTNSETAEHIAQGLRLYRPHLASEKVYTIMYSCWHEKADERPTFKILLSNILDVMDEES
# In short: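 BTK C481S tracer-displacement TR-FRET: 5 nM His-tagged kinase, 2 nM Eu anti-His antibody and 30 nM Kinase Tracer 236 incubated with titrated inhibitor for 5 h in Kinase Buffer A. Read at 340 nm excitation, 615/665 nm emission; IC50 from variable-slope log[inhibitor]–response fit.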
# [3] = target: T3, Recombinant EGFR (Homo sapiens, UniProt P00533); experiment: EGFR binding affinity (LanthaScreen TR-FRET); conditions: Kinase Tracer 199, 5 h incubation
# T3 construct: purchased Invitrogen
# T3 sequence (P00533 25-1210): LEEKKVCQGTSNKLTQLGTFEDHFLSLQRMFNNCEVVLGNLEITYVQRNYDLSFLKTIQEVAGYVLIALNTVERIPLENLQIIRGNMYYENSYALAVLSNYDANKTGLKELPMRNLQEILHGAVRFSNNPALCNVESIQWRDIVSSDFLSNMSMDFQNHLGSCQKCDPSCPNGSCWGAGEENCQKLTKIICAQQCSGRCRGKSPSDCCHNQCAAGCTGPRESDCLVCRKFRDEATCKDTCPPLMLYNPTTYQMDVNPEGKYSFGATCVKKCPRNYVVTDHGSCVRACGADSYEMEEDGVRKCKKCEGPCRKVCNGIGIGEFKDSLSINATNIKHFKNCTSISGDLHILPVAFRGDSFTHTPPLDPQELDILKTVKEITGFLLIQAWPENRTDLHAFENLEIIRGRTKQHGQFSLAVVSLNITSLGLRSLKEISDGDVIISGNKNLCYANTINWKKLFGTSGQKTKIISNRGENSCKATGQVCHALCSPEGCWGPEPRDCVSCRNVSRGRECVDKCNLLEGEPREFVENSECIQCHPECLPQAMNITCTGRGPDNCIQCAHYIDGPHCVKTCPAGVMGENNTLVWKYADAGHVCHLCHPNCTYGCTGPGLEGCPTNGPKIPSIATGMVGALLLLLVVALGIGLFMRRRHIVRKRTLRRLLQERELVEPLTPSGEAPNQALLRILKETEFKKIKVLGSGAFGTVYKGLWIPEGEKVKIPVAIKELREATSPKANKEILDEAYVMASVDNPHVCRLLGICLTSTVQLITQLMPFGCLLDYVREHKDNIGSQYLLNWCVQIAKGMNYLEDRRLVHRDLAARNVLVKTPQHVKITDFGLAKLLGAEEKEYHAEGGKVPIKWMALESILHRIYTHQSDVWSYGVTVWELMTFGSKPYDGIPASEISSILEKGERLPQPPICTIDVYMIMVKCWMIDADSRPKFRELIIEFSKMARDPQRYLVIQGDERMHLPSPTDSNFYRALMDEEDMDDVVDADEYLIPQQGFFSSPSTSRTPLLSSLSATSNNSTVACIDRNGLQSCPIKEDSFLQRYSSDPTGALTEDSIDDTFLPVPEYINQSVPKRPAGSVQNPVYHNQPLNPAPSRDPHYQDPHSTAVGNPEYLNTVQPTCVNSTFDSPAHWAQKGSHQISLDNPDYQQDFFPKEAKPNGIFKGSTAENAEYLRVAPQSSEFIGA
# In short: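 Compounds were titrated against recombinant EGFR and binding was followed by LanthaScreen time-resolved FRET.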
# [4] = tested on: OCI-Ly10 human DLBCL cells; experiment: OCI-Ly10 anti-proliferative activity (Resazurin); format: cell-based; conditions: Homo sapiens, OCI-Ly10, 72 h, OCI-Ly10 cells, 72 h compound treatment, Resazurin; read-out: Proliferation Assay OCI-Ly10-20% FBS
# In short: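 A separate untreated plate gave the Day 0 reading, measured by Resazurin fluorescence at 590 nm after 5 h. The average Day 0 value was subtracted from each treated well, and results were expressed as percent of DMSO control. IC50 values came from a log[Inhibitor] vs response Variable Slope fit in Graphpad prism.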
# T1 sequence (Q06187 whole entry): as the sequence (Q06187 whole entry C481S) above, with S481C counted along it
Structure (SMILES),IC50 [1] [nM],IC50 [2] [nM],IC50 [3] [µM],IC50 [4] [nM]
"CCC(n1nc(-c2ccc(CNC(=O)c3ccccc3OC)cc2)c(C(N)=O)c1N)C(F)(F)F (stereo not shown) [Example 170, 5-amino-3-[4-[[(2-methoxybenzoyl)amino]methyl]phenyl]-1-[1-(trifluoromethyl)propyl]pyrazole-4-carboxamide]",10 to 100,< 10,1 to 10,100 to 1000
"COc1ccccc1C(=O)NCc1ccc(-c2nn(C(C(C)C)C(F)(F)F)c(N)c2C(N)=O)cc1 (stereo not shown) [Example 171, 5-amino-3-[4-[[(2-methoxybenzoyl)amino]methyl]phenyl]-1-[2-methyl-1-(trifluoromethyl)propyl]pyrazole-4-carboxamide]",10 to 100,< 10,1 to 10,100 to 1000
"COc1ccc(F)cc1C(=O)NCc1ccc(-c2nn(C(C)C(F)F)c(N)c2C(N)=O)cc1 (stereo not shown) [Example 173, 5-amino-1-(2,2-difluoro-1-methyl-ethyl)-3-[4-[[(5-fluoro-2-methoxy-benzoyl)amino]methyl]phenyl]pyrazole-4-carboxamide]",< 10,< 10,1 to 10,10 to 100
"COc1ccc(F)cc1C(=O)NCc1ccc(-c2nn(CCC(F)(F)F)c(N)c2C(N)=O)cc1 [Example 174, 5-amino-3-[4-[[(5-fluoro-2-methoxy-benzoyl)amino]methyl]phenyl]-1-(3,3,3-trifluoropropyl)pyrazole-4-carboxamide]",< 10,< 10,1 to 10,10 to 100
"COc1ccc(F)cc1C(=O)NCc1ccc(-c2nn(CC(C)C(F)(F)F)c(N)c2C(N)=O)cc1 (stereo not shown) [Example 176, 5-amino-3-[4-[[(5-fluoro-2-methoxy-benzoyl)amino]methyl]phenyl]-1-(3,3,3-trifluoro-2-methyl-propyl)pyrazole-4-carboxamide]",< 10,< 10,1 to 10,10 to 100
"COc1ccc(F)cc1C(=O)NCc1ccc(-c2nn(C(C)C(F)(F)F)c(N)c2C(N)=O)cc1F (stereo not shown) [Example 177, 5-amino-3-[3-fluoro-4-[[(5-fluoro-2-methoxy-benzoyl)amino]methyl]phenyl]-1-(2,2,2-trifluoro-1-methyl-ethyl)pyrazole-4-carboxamide]",< 10,< 10,1 to 10,10 to 100
"COc1ccc(F)cc1C(=O)NCc1ccc(-c2nn(C(c3ccccc3)C(F)(F)F)c(N)c2C(N)=O)cc1 (stereo not shown) [Example 178, 5-Amino-3-[4-[[(5-fluoro-2-methoxy-benzoyl)amino]methyl]phenyl]-1-(2,2,2-trifluoro-1-phenyl-ethyl)pyrazole-4-carboxamide]",10 to 100,< 10,1 to 10,10 to 100
"COc1ccc(F)cc1C(=O)NCc1ccc(-c2nn(C(C)C(F)(F)F)c(N)c2C(N)=O)c(F)c1 (stereo not shown) [Example 179, 5-amino-3-[2-fluoro-4-[[(5-fluoro-2-methoxy-benzoyl)amino]methyl]phenyl]-1-(2,2,2-trifluoro-1-methyl-ethyl)pyrazole-4-carboxamide]",< 10,< 10,1 to 10,10 to 100
"COc1ccc(F)cc1C(=O)NCc1ccc(-c2nn(C(C(C)C)C(F)(F)F)c(N)c2C(N)=O)cc1 (stereo not shown) [Example 180, 5-amino-3-[4-[[(5-fluoro-2-methoxy-benzoyl)amino]methyl]phenyl]-1-[2-methyl-1-(trifluoromethyl)propyl]pyrazole-4-carboxamide]",< 10,< 10,1 to 10,10 to 100
"CCC(n1nc(-c2ccc(CNC(=O)c3cc(F)ccc3OC)cc2)c(C(N)=O)c1N)C(F)(F)F (stereo not shown) [Example 181, 5-amino-3-[4-[[(5-fluoro-2-methoxy-benzoyl)amino]methyl]phenyl]-1-[1-(trifluoromethyl)propyl]pyrazole-4-carboxamide]",< 10,< 10,1 to 10,10 to 100
"COc1ccc(F)cc1C(=O)NCc1ccc(-c2nn(C3CCOC3)c(N)c2C(N)=O)c(F)c1F (stereo not shown) [Example 182, 5-amino-3-[2,3-difluoro-4-[[(5-fluoro-2-methoxy-benzoyl)amino]methyl]phenyl]-1-tetrahydrofuran-3-yl-pyrazole-4-carboxamide]",10 to 100,< 10,1 to 10,100 to 1000
"COc1ccc(F)cc1C(=O)NCc1ccc(-c2nn([C@@H]3CCCOC3)c(N)c2C(N)=O)cc1 [Example 183, 5-amino-3-[4-[[(5-fluoro-2-methoxy-benzoyl)amino]methyl]phenyl]-1-[(3R)-tetrahydropyran-3-yl]pyrazole-4-carboxamide]",< 10,< 10,1 to 10,100 to 1000
"COc1ccc(F)cc1C(=O)NCc1ccc(-c2nn(C(C3CCOCC3)C(F)(F)F)c(N)c2C(N)=O)cc1 (stereo not shown) [Example 184, 5-amino-3-[4-[[(5-fluoro-2-methoxy-benzoyl)amino]methyl]phenyl]-1-(2,2,2-trifluoro-1-tetrahydropyran-4-yl-ethyl)pyrazole-4-carboxamide]",10 to 100,< 10,> 10,< 10
"COc1ccc(F)cc1C(=O)NCc1ccc(-c2nn(C3CCNCC3(F)F)c(N)c2C(N)=O)cc1 (stereo not shown) [Example 186, 5-amino-1-(3,3-difluoro-4-piperidyl)-3-[4-[[(5-fluoro-2-methoxy-benzoyl)amino]methyl]phenyl]pyrazole-4-carboxamide]",< 10,< 10,1 to 10,10 to 100
"COc1ccccc1C(=O)NCC(O)c1ccc(-c2nn(C3CCCC3)c(N)c2C(N)=O)cc1C (stereo not shown) [Example 187, 5-amino-1-cyclopentyl-3-[4-[1-hydroxy-2-[(2-methoxybenzoyl)amino]ethyl]-3-methyl-phenyl]pyrazole-4-carboxamide]",100 to 1000,100 to 1000,1 to 10,100 to 1000
"COc1ccc(F)cc1C(=O)NCc1ccc(-c2nn(C(C)(C)C(F)(F)F)c(N)c2C(N)=O)cc1 [Example 189, 5-amino-3-[4-[[(5-fluoro-2-methoxy-benzoyl)amino]methyl]phenyl]-1-(2,2,2-trifluoro-1,1-dimethyl-ethyl)pyrazole-4-carboxamide]",< 10,< 10,1 to 10,10 to 100
"COc1ccc(F)cc1C(=O)NCc1ccc(-c2nn(C3(C(F)(F)F)CCOCC3)c(N)c2C(N)=O)cc1 [Example 190, 5-Amino-3-[4-[[(5-fluoro-2-methoxy-benzoyl)amino]methyl]phenyl]-1-[4-(trifluoromethyl)tetrahydropyran-4-yl]pyrazole-4-carboxamide]",100 to 1000,10 to 100,1 to 10,1000 to 10000
"COc1ccc(F)cc1C(=O)NCc1ccc(-c2nn(C3CCN(C)CC3(F)F)c(N)c2C(N)=O)cc1 (stereo not shown) [Example 191, 5-amino-1-(3,3-difluoro-1-methyl-4-piperidyl)-3-[4-[[(5-fluoro-2-methoxy-benzoyl)amino]methyl]phenyl]pyrazole-4-carboxamide]",< 10,< 10,1 to 10,10 to 100
"COc1ccc(F)cc1C(=O)NCc1ccc(-c2nn(C(C3CCCCC3)C(F)(F)F)c(N)c2C(N)=O)cc1 (stereo not shown) [Example 192, 5-amino-1-(1-cyclohexyl-2,2,2-trifluoro-ethyl)-3-[4-[[(5-fluoro-2-methoxy-benzoyl)amino]methyl]phenyl]pyrazole-4-carboxamide]",10 to 100,10 to 100,1 to 10,100 to 1000
"COc1ccc(F)cc1C(=O)NCc1ccc(-c2nn(C(CCO)C(F)F)c(N)c2C(N)=O)cc1 (stereo not shown) [Example 193, 5-Amino-1-[1-(difluoromethyl)-3-hydroxy-propyl]-3-[4-[[(5-fluoro-2-methoxy-benzoyl)amino]methyl]phenyl]pyrazole-4-carboxamide]",10 to 100,< 10,1 to 10,100 to 1000
"COc1ccc(F)cc1C(=O)NCc1ccc(-c2nn(C(C(C)(C)C)C(F)(F)F)c(N)c2C(N)=O)cc1 (stereo not shown) [Example 194, 5-amino-1-[2,2-dimethyl-1-(trifluoromethyl)propyl]-3-[4-[[(5-fluoro-2-methoxy-benzoyl)amino]methyl]phenyl]pyrazole-4-carboxamide]",10 to 100,10 to 100,1 to 10,100 to 1000
"CCn1nc(-c2ccc(CNC(=O)c3cc(F)ccc3OC)cc2)c(C(N)=O)c1N [Example 195, 5-amino-1-ethyl-3-[4-[[(5-fluoro-2-methoxy-benzoyl)amino]methyl]phenyl]pyrazole-4-carboxamide]",< 10,< 10,1 to 10,10 to 100
